From ChEMBL document CHEMBL1201862, “PubChem BioAssay data set” (2004)
Active and inactive are the calls of the source.

Legend:
[1] = target: Beta-2 adrenergic receptor (Homo sapiens, UniProt P07550); test: ADRB2 activation measured by internalization – cell-based, FAP fluorogen, flow cytometry, cherry pick 1, dose response (AID 588763); format: functional
[2] = target: T1, Voltage-gated N-type calcium channel alpha-1B subunit/Amyloid beta A4 precursor protein-binding family A member 1 (Homo sapiens, UniProt Q00975+Q02410); format: protein assay
[3] = target: T1, Voltage-gated N-type calcium channel alpha-1B subunit/Amyloid beta A4 precursor protein-binding family A member 1; format: protein assay; remark: listed apart in the source
[4] = IGROV1 cell killing – plate reader, dry powder samples, PAX8 inhibitor project, dose response (AID 743043); format: functional, cell-based; details: IGROV-1
Paired box protein Pax-8 = Paired box protein Pax-8 (Homo sapiens, UniProt Q06710); test: PAX8 transcriptional activity inhibition in RMG-I – RMG-I cells, luciferase, cherry-pick, dose response (AID 687027); format: functional, cell-based;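 note: luciferase reporter driven by Pax8 target thyroperoxidase promoter measured by SteadyGlo luminescence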
Paired box protein Pax-8, sequence (Q06710 whole entry): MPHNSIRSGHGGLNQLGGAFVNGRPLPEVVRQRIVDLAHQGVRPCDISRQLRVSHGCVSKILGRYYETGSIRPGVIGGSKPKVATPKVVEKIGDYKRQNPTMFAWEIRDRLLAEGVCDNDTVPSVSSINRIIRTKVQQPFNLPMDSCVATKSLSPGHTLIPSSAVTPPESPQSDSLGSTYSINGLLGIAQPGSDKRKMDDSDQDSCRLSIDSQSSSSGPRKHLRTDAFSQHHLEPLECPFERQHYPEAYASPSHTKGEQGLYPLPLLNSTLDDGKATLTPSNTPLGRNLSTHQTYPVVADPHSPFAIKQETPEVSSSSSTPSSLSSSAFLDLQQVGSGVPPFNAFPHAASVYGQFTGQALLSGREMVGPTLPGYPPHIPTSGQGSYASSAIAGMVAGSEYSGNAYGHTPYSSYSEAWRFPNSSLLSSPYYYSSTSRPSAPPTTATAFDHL

[5] = OVCAR8 cell viability loss – plate reader, dry powder samples, PAX8 project, dose response (AID 743197); format: functional, cell-based; details: OVCAR-8
[6] = OVCAR-3 cell viability loss – plate reader, dry powder samples, PAX8 inhibitor project, dose response (AID 743044); format: functional, cell-based
[7] = target: T2, Adenosylmethionine-8-amino-7-oxononanoate aminotransferase (Mycobacterium tuberculosis, UniProt P9WQ81); test: Mycobacterium tuberculosis BioA enzyme inhibitor Measured in Biochemical System Using Plate Reader - 2163-02_Inhibitor_Dose_CherryPick_Activity.; format: functional, Mycobacterium tuberculosis UT205
T2 sequence (P9WQ81 whole entry): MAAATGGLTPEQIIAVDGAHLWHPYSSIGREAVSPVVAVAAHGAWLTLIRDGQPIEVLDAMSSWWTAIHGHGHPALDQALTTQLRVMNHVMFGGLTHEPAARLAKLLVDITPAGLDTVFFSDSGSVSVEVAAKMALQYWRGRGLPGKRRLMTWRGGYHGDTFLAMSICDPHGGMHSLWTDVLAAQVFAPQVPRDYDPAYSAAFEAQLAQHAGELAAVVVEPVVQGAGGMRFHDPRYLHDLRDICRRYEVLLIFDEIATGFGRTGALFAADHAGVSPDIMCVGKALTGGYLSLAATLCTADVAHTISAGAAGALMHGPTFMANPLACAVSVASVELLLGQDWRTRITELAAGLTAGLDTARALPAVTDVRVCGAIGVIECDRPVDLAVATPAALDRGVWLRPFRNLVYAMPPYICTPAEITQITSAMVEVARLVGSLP

[8] = target: Voltage-gated inwardly rectifying potassium channel KCNH2 (Homo sapiens, UniProt Q12809); details: Potency;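 note: confirmatory quantitative high-throughput screen measuring inhibition of hERG channel activity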
Voltage-gated inwardly rectifying potassium channel KCNH2, sequence (Q12809 whole entry): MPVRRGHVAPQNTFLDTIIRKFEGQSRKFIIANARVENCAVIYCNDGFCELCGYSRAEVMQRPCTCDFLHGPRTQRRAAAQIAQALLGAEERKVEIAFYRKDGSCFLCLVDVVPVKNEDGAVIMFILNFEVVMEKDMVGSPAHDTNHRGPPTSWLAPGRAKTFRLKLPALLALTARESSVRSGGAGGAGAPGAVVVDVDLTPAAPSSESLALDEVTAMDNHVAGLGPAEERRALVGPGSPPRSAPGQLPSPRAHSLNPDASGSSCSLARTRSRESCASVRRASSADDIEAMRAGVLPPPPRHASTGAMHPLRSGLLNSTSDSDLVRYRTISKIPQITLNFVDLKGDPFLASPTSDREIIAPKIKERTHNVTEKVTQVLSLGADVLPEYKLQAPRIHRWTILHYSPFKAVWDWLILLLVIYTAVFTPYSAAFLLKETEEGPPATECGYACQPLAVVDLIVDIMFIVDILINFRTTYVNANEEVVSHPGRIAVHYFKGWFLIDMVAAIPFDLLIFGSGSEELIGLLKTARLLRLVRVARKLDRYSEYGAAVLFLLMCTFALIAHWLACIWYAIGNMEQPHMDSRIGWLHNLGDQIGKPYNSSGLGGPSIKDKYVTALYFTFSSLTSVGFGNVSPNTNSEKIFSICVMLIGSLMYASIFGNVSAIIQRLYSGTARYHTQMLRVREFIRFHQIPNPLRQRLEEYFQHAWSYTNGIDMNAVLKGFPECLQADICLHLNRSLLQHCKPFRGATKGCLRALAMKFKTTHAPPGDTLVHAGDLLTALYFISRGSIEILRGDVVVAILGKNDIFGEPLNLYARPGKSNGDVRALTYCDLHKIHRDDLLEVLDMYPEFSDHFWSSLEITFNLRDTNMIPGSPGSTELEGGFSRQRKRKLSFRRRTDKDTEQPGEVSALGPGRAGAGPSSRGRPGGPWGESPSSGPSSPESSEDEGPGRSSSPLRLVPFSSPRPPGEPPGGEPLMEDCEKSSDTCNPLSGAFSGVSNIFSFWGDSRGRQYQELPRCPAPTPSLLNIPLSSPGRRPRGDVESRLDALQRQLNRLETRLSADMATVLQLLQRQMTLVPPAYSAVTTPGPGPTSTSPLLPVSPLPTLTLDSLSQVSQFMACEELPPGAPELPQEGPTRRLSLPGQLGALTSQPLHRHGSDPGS

[9] = target: T3, Probable nicotinate-nucleotide adenylyltransferase (Staphylococcus aureus (strain N315), UniProt P65502); format: functional, Staphylococcus aureus subsp. aureus N315;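 for IC50 Mean: confirmatory dose-response retesting of NadD inhibitor hits first found in an ultra-high-throughput screen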
T3 sequence (P65502 whole entry): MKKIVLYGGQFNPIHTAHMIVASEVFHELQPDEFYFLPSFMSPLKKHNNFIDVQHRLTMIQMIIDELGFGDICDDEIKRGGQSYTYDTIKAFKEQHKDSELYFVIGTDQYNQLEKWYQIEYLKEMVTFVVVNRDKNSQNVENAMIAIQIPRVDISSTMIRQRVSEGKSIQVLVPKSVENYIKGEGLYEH

[10] = target: T3, Probable nicotinate-nucleotide adenylyltransferase; format: functional, Staphylococcus aureus subsp. aureus N315; details: read-out: IC50_Mean
[11] = fluconazole-exposed Candida albicans growth modulators – fluorescence, retest, confirmation (AID 2467); format: functional, cell-based
[12] = NIH-3T3 fibroblast cytotoxicity, dose response, cytotoxicity control, cell-based, fluorescence, Alamar Blue, secondary assay (AID 2327); format: functional;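 note: NIH-3T3 mouse fibroblasts cultured with fluconazole at 8 µg/mL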
[13] = Trypanosoma cruzi growth suppression in host cells – NIH3T3 host cells, beta-gal luminescence, confirmation (AID 2044); format: functional, cell-based;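 note: intracellular parasites grown in NIH/3T3 mouse fibroblasts as host cells; luminescent beta-galactosidase reporter signal from transgenic T. cruzi replicating inside host cells; inhibitors lower the luminescence signal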
[14] = target: T4, Histone-lysine N-methyltransferase NSD2 (Homo sapiens, UniProt O96028); format: biochemical
T4 sequence (O96028 whole entry): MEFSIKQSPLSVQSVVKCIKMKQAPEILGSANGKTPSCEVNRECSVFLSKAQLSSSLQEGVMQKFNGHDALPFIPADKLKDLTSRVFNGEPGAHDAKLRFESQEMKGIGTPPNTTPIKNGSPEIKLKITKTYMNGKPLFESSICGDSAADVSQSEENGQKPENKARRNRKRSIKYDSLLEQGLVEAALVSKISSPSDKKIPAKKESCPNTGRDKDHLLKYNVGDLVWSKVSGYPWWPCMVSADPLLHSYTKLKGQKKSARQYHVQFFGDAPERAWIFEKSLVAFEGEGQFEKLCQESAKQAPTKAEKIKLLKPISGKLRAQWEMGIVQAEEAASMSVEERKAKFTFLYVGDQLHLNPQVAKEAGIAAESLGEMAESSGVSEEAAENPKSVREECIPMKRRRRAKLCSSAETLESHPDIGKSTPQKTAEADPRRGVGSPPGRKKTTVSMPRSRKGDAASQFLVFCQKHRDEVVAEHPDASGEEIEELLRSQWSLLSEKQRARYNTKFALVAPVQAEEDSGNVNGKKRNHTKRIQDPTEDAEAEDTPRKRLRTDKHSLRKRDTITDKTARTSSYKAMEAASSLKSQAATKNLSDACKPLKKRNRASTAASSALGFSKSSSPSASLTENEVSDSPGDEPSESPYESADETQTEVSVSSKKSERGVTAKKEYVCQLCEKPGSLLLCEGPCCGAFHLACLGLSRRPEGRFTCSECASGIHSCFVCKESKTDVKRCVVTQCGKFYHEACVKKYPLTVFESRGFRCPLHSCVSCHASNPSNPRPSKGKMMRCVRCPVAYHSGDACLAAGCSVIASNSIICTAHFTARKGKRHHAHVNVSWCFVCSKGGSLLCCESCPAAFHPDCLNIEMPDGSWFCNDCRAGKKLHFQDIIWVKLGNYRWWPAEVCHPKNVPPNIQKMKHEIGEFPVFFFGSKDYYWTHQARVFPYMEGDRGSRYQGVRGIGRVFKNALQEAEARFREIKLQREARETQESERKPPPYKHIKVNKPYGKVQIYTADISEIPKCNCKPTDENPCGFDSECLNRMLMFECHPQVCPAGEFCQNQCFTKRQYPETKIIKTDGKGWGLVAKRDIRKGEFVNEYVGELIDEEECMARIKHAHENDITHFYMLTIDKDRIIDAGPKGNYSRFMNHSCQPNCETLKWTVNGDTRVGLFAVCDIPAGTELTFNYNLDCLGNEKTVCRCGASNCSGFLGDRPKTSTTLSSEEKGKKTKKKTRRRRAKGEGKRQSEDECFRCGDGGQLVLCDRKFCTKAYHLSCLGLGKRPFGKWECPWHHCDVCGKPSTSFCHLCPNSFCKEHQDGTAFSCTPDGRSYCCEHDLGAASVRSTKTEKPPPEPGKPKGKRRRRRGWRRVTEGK

Nonstructural protein 1 = Nonstructural protein 1 (Influenza A virus, UniProt Q194T2); format: functional, Influenza A virus (A/California/07/2009(H1N1))
Nonstructural protein 1, sequence (Q194T2 whole entry): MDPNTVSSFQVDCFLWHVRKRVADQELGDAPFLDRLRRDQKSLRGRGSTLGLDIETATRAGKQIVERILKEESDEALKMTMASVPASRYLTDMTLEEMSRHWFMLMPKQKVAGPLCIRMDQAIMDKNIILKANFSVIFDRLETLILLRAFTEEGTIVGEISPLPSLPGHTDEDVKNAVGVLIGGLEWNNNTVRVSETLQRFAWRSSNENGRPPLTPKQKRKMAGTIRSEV

Cytochrome P450 3A4 = Cytochrome P450 3A4 (Homo sapiens, UniProt P08684); details: Potency;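 note: confirmatory qHTS run detecting inhibitors and substrates of CYP3A4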
Cytochrome P450 3A4, sequence (P08684 whole entry): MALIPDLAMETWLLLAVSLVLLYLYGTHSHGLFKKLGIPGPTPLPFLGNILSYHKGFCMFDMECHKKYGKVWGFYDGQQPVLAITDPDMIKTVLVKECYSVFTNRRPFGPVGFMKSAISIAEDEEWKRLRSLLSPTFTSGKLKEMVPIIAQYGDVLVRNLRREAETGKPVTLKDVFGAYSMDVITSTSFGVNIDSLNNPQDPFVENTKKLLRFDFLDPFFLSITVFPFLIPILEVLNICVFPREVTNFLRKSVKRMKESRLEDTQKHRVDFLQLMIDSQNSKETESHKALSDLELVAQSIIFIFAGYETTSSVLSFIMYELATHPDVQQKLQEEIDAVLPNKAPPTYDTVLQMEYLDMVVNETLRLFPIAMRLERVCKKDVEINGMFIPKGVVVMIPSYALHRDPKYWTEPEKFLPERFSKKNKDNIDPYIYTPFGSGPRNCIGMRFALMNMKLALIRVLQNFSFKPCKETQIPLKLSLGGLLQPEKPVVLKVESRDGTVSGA

[15] = NIH3T3 cell viability loss – ATP luminescence, mouse fibroblasts, counter-screen, dose response (AID 2010); format: functional, cell-based;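 note: cells exposed to compound for about 90 hours before reading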
[16] = A cytotoxicity screen of small molecule inhibitors of the PhoP region in Salmonella typhi identified in the primary screen. [Related pubchem assays: 1850, 1864, 1985 ]; format: functional
HEK293 [17] = test: NOD2 signaling inhibitors in MDP-stimulated cells, cell-based, uHTS, luminescence (AID 2001); format: functional; details: Homo sapiens
HEK293 [18] = test: cells; format: functional, cell-based; details: Homo sapiens
HEK293 [19] = test: cells; format: functional, cell-based; details: Homo sapiens; remark: listed apart in the source
HEK293 [20] = test: inhibition of NOD1-driven NF-kB reporter – cell-based, luminescence, uHTS, primary screen (AID 1578); format: functional; details: Homo sapiens
[21] = target: T5, DNA repair protein RAD52 homolog (Homo sapiens, UniProt P43351); format: functional, biochemical
T5 sequence (P43351 whole entry): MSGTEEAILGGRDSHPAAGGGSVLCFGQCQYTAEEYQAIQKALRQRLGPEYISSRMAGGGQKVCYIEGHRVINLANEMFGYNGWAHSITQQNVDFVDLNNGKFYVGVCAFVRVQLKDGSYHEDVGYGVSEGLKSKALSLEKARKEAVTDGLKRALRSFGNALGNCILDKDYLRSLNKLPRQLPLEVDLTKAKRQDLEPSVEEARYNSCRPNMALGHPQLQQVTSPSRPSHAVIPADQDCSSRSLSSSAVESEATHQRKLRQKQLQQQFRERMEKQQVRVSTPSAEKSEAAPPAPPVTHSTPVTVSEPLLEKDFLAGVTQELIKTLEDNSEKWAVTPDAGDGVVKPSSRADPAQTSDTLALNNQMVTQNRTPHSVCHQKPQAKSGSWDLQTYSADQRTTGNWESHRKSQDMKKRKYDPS

[22] = target: Dual specificity tyrosine-phosphorylation-regulated kinase 1A (Rattus norvegicus, UniProt Q63470); format: biochemical, Homo sapiens

Beta-2 adrenergic receptor, sequence (P07550 whole entry): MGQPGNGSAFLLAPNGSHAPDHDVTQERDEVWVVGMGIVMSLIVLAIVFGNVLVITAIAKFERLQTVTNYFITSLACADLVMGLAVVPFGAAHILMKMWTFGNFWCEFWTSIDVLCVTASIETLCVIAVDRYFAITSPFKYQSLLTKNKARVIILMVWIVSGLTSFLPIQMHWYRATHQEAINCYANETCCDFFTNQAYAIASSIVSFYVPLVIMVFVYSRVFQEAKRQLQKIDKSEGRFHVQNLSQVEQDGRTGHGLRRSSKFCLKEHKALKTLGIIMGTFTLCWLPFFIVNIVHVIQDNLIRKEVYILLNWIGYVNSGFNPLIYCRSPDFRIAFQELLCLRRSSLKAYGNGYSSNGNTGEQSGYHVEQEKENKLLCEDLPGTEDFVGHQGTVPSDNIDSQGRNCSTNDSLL

CCOc1ccc(NC(=O)CNC(=O)c2nn(-c3ccc(OC)c(OC)c3)c(=O)c3ccccc23)cc1
EC50 [1]: 6.57 µM (active)

Cc1ccc(-c2cc(C(=O)N3CC(C)CC(C)C3)c3ccccc3n2)o1 (configuration not stated)
IC50 [2]: 5.42 µM (active) | IC50 [3]: 11.3 µM (active)

CC(C)CC#Cc1ccc2c(c1)O[C@@H](CN(C)S(=O)(=O)c1ccc(F)cc1)[C@@H](C)CN([C@@H](C)CO)S2(=O)=O
AC50 [4]: 51.5 µM (active) | AC50 (Paired box protein Pax-8): 12.9 µM (active) | AC50 [5]: > 70 µM (inactive) | AC50 [6]: 25.9 µM (active)

CCC(=O)N1CC[C@@H]2[C@H]1c1cc(-c3cccc(F)c3)ccc1N(C)[C@H]2CO
AC50 [7]: 5.53 µM (active)

COC(=O)c1c(C)[nH]c(C)c1C(=O)c1ccccc1Cc1ccccc1
AC50 [8]: 35.5 µM (inconclusive)

Cc1cc(N(CCCl)CCCl)ccc1C=NNC(=O)Cc1cc(=O)oc2cc(O)ccc12
IC50 [9]: 8.75 µM (active) | IC50 [10]: 28.7 µM (active)

C/C(CC(C)(C)C1CCCCC1)=N\NC(N)=S
EC50 (cells): 133 nM (active) | EC50 [11]: 2.9 µM (active) | EC50 [12]: 2.86 µM (inconclusive) | EC50 [13]: < 100 nM (active)

C[C@@H]1CN([C@H](C)CO)C(=O)c2cc(NS(=O)(=O)c3ccc(F)cc3)ccc2O[C@@H](C)CCCCO[C@H]1CN(C)Cc1ccc(C(F)(F)F)cc1
AC50 [4]: 55.1 µM (active) | AC50 (Paired box protein Pax-8): 5.54 µM (active) | AC50 [5]: 33.9 µM (active) | AC50 [6]: 7.81 µM (active)

COC(=O)C1CCN(C2=C(NS(=O)(=O)c3ccc(Cl)cc3)C(=O)c3ccccc3C2=O)CC1
AC50 [14]: 13.1 µM (active) | IC50 (Nonstructural protein 1): 27.4 µM (active)

Cc1cc([N+](=O)[O-])ccc1N
AC50 (Cytochrome P450 3A4): 39.8 µM (inconclusive) | AC50 [8]: 17.8 µM (inconclusive)

CCOc1cc(CN2CCCC(CNC(=O)c3ccc(F)cc3)C2)ccc1OC (configuration not stated)
EC50 [15]: > 30 µM (not active) | EC50 (cells): 206 nM (active) | EC50 [13]: < 100 nM (active)

O=C(Nc1cccc(F)c1)NC1CCCCC1
EC50 [16]: > 50 µM (active)

CC(C)c1ccc(S(=O)(=O)c2cc3cc(Br)ccc3oc2=O)cc1
IC50 (HEK293 [17]): 3.73 µM (active) | IC50 (HEK293 [18]): 10.5 µM (active) | IC50 (HEK293 [19]): 3.29 µM (active) | EC50 (HEK293 [20]): > 20 µM (inactive)

CC1(C)CC23C(=O)CCC(O)C2(C)CCC13 (configuration not stated) [3-NOR-3-OXOPANASINSAN-6-OL]
AC50 (Cytochrome P450 3A4): 15.8 µM (inconclusive)

COc1ccc(C2CC(=O)N(CCCN(C)CCc3ccc(OC)c(OC)c3)C2)cc1 (configuration not stated)
EC50 [15]: > 60 µM (not active) | EC50 (cells): 20 nM (active) | EC50 [13]: < 100 nM (active)

COc1ccccc1CNC(=O)Cn1c(=O)oc2cc(S(=O)(=O)N3CCCC3)ccc21
EC50 [16]: > 50 µM (active)

COc1ccc(NC(=O)N(C)C[C@H]2Oc3ccc(NC(=O)c4ccncc4)cc3C(=O)N([C@H](C)CO)C[C@@H]2C)cc1
IC50 [9]: 27.8 µM (active) | IC50 [10]: 40.4 µM (active)

COC(=O)C1=C(c2cccc(OCc3ccccc3)c2)C[C@@H]2CC[C@H]1N2C(=O)NCc1cccc(F)c1
EC50 [1]: 4.8 µM (active)

COc1cc2c3cc1Oc1cc(ccc1O)C[C@@H]1c4c(cc(OC)c(O)c4Oc4cccc(c4)C[C@@H]3N(C)CC2)CC[N+]1(C)C
AC50 [7]: 15.4 µM (active) | AC50 [21]: 8.2 µM (active)

CC(C)=CCc1c2c(c(O)c3c(=O)c(O)c(-c4ccccc4)oc13)C=CC(C)(C)O2 [SERICETIN]
AC50 (Cytochrome P450 3A4): 15.8 µM (inconclusive)

Cc1ccccc1Cn1c(=O)n(CCCC(=O)NCc2ccco2)c(=O)c2ccccc21
EC50 [16]: > 50 µM (active)

COc1ccc2cc(C(=O)N/N=C/c3cc(OC)c(OC)c(OC)c3)[nH]c2c1
AC50 [22]: 3.83 µM (active)

CCCCCOC(=O)c1ccccc1C(=O)OCCCCC
AC50 (Cytochrome P450 3A4): 12.6 µM (inconclusive) | AC50 [8]: 39.8 µM (inconclusive)

C[C@H]1CCCCO[C@H](CN(C)C(=O)Nc2cccc3ccccc23)[C@@H](C)CN([C@@H](C)CO)C(=O)c2cc(NS(=O)(=O)c3ccc(F)cc3)ccc2O1
AC50 [4]: 33.8 µM (active) | AC50 (Paired box protein Pax-8): 5.88 µM (active) | AC50 [5]: > 70 µM (inactive)

CN(C)C(=O)C[C@@H]1C[C@@H]2c3cc(NC(=O)c4cccnc4)ccc3O[C@@H]2[C@@H](CO)O1
AC50 [7]: 12.7 µM (active)

CC(=O)Nc1ccc(C(=O)CCl)cc1
AC50 [8]: 28.2 µM (inconclusive)

O=C(Nc1cccnc1)c1ccc(N2CCCC2)c([N+](=O)[O-])c1
AC50 [7]: 1.19 µM (active)
